Assay results from patent US9353150B2, “Substituted pyrazino[1′,2′:1 ,5]pyrrolo[2,3-b]-indole-1,4-diones for cancer treatment” (Massachusetts Institute of Technology, priority 2012, dated 2016).
Entries after “also recorded” stand apart in the source; their conditions may differ. Like-named read-outs stand apart in the source and are kept apart here.

Tests used:
MCF-7 (breast carcinoma) = test: 72-hour IC50 determination for adherent cells using sulforhodamine B (SRB); assay type: cell-based, human; settings: error is standard deviation of the mean, n ≧ 3, read-out: MCF-7, 72-hour IC50 (Table E1-2)
Description: (§1) Certain provided compounds were tested in culture against a panel of three supplementary human cancer cell lines representing three additional tumor histologies (H460, lung carcinoma; 786-O, renal carcinoma; MCF-7, breast carcinoma). As shown in Table E1-2, the ETPs retain their potency across the cell lines. In some embodiments, a provided compound is active in all cell lines. In some embodiments, a provide compound can be used to selectively target certain cells and/or cancers. […] Without the intention to be limited, Applicant notes that certain cell lines could be more sensitive to provided compounds; for example, U-937 and HeLa are slightly more sensitive to the ETPs than the other three cell lines.
(§2) Cells were grown in media supplemented with fetal bovine serum (FBS) and antibiotics ([…]). Specifically, experiments were performed using the following cell lines and media compositions: U-937, HeLa, H460, and 786-O (RPMI-1640+10% FBS), and MCF7 (EMEM+10% FBS). Cells were incubated at 37° C. in a 5% CO2, 95% humidity atmosphere.
(§3) Adherent cells (HeLa, H460, 786-O, and MCF7) were added into 96-well plates (5,000 cells/well for HeLa cell line; 2,000 cells/well for H460, 786-O, and MCF7 cell lines) in 100 μL media and were allowed to adhere for 2-3 hours. Compounds were solubilized in DMSO as 100× stocks, added directly to the cells (100 μL final volume), and tested over a range of concentrations in triplicate (1% DMSO final) on a half-log scale. Concentrations tested ranged from […] to 10 μM, depending on the potency of the compound. DMSO and cell-free wells served as the live and dead control, respectively. After 72 hours of continuous exposure, the plates were evaluated using the SRB colorimetric assay as described previously (Vichai, V.; Kirtikara, K. Nature Prot. 2006, 1, 1112). Briefly, media was removed from the plate, and cells were fixed by the addition of 100 μL cold 10% trichloroacetic acid in water. After incubating at 4° C. for an hour, the plates were washed in water and allowed to dry. Sulforhodamine B was added as a 0.057% solution in 1% acetic acid (100 μL), and the plates were incubated at room temperature for 30 minutes, washed in 1% acetic acid, and allowed to dry. The dye was solubilized by adding 10 mM Tris base solution (pH 10.5, 200 μL) and incubating at room temperature for 30 minutes. Plates were read at λ=510 nm. IC50 values were determined from three or more independent experiments using TableCurve (San Jose, Calif.).

H460 (lung carcinoma) = test: as above; assay type: cell-based, human; settings: error is standard deviation of the mean, n ≧ 3, read-out: H460, 72-hour IC50 (Table E1-2)
Description: as §1, §2, §3

786-O (renal carcinoma) = test: as above; assay type: cell-based, human; settings: error is standard deviation of the mean, n ≧ 3, read-out: 786-O, 72-hour IC50 (Table E1-2)
Description: as §1, §2, §3

[1] = tested on: HeLa (cervical carcinoma); test: as above; assay type: cell-based, human
Description: (§4) Certain synthesized compounds were screened for their ability to induce death in two human cancer cell lines: U-937 (leukemic monocyte lymphoma) and HeLa (cervical cancer).
as §2, §3

human cancer cell lines = test: Anticancer activity in human cancer cell lines, not tied to one cell line; assay type: cell-based; settings: for anticancer activity, in words: human cancer cell lines, 72-hour exposure; for change in activity across cell lines: five cell lines of Table E1-2
Description: as §4, §1, §3
(§5) In a 96-well plate, compounds were pre-added as DMSO stocks in triplicate to achieve a final concentration of 1%. DMSO and cell-free wells served as the live and dead control, respectively. U-937 (5,000 cells/well) cells were distributed in 100 μL media to the compound-containing plate. After 72 hours, cell viability was assessed by adding 20 μL of a PMS/MTS solution (Cory, A. H.; Owen, T. C.; Barltrop, J. A.; Cory, J. G. Cancer Commun. 1991, 3, 207) to each well, allowing the dye to develop at 37° C. until the live control had processed MTS, and reading the absorbance at λ=490 nm. IC50 values were determined from three or more independent experiments using TableCurve (San Jose, Calif.).

[2] = tested on: U-937 (hystiocytic lymphoma); test: 72-hour IC50 determination for non-adherent cells using MTS; assay type: cell-based, human
Description: as §4, §2, §5

[3] = Stability observed on isolation (concentration / solution); settings: observed during isolation and characterization
[4] = Homo sapiens, MCF7, 72-hour exposure
[5] = Homo sapiens, NCI-H460, 72-hour exposure
[6] = Homo sapiens, 786-0, 72-hour exposure
[7] = Homo sapiens, HeLa, 72-hour exposure, SRB, error is standard deviation of the mean, n ≧ 3, read-out: HeLa, 72-hour IC50 (Table E1-1)
[8] = Homo sapiens, HeLa, 72-hour exposure, SRB, error is standard deviation of the mean, n ≧ 3, read-out: HeLa, 72-hour IC50 (Table E1-2)
[9] = Homo sapiens, U-937, 72-hour exposure, MTS, error is standard deviation of the mean, n ≧ 3, read-out: U-937, 72-hour IC50 (Table E1-1)
[10] = Homo sapiens, U-937, 72-hour exposure, MTS, error is standard deviation of the mean, n ≧ 3, read-out: U-937, 72-hour IC50 (Table E1-2)
[11] = 72-hour exposure, SRB, error is standard deviation of the mean, n ≧ 3, read-out: HeLa, 72-hour IC50 (Table E1-1)
[12] = 72-hour exposure, SRB, error is standard deviation of the mean, n ≧ 3, read-out: HeLa, 72-hour IC50 (Table E1-2)
[13] = 72-hour exposure, MTS, error is standard deviation of the mean, n ≧ 3, read-out: U-937, 72-hour IC50 (Table E1-1)
[14] = 72-hour exposure, MTS, error is standard deviation of the mean, n ≧ 3, read-out: U-937, 72-hour IC50 (Table E1-2)
[15] = Homo sapiens, HeLa, 72 h, read-out: HeLa, 72-hour IC50 (Table E1-1)
[16] = Homo sapiens, HeLa, 72 h, read-out: HeLa, 72-hour IC50 (Table E1-2)
[17] = Homo sapiens, HeLa, 72 h, read-out: IC50 (HeLa)
[18] = Homo sapiens, U-937, 72 h, read-out: IC50 (U-937)
[19] = Homo sapiens, U-937, 72 h, read-out: U-937, 72-hour IC50 (Table E1-1)
[20] = Homo sapiens, U-937, 72 h, read-out: U-937, 72-hour IC50 (Table E1-2)

Compound | IC50 (MCF-7 (breast carcinoma); [4]) [nM] | IC50 (H460 (lung carcinoma); [5]) [nM] | IC50 (786-O (renal carcinoma); [6]) [nM] | IC50 [1, 7] [nM] | IC50 [1, 8] [nM] | anticancer activity, in words (human cancer cell lines) | IC50 [2, 9] [nM] | IC50 [2, 10] [nM] | IC50 (MCF-7 (breast carcinoma); 72-hour exposure) [nM] | IC50 (H460 (lung carcinoma); 72-hour exposure) [nM] | IC50 (786-O (renal carcinoma); 72-hour exposure) [nM] | IC50 [1, 11] [nM] | IC50 [1, 12] [nM] | IC50 [2, 13] [nM] | IC50 [2, 14] [nM] | also measured
CN1C(=O)C23CC4(C56CC78SC(=S)S[C@](C)(C(=O)N7[C@H]5N(S(=O)(=O)c5ccccc5)c5ccccc56)N(C)C8=O)c5ccccc5N(S(=O)(=O)c5ccccc5)[C@@H]4N2C(=O)[C@@]1(C)SC(=S)S3 (stereo partly shown) [Compound 18, Dimeric bisdithiepanethione] | 10.7 ± 8.1 | 18.5 ± 2.7 | 14.9 ± 4.4 | 1.1 ± 0.8 | 1.1 ± 0.8 | competent anticancer agents; also recorded: active across the board | 2.9 ± 2.1 | 2.9 ± 2.1 | – | – | – | – | – | – | – | –
CN1C(=O)[C@@]23C[C@]4(c5c[nH]c6ccccc56)c5ccccc5N(S(=O)(=O)c5ccccc5)[C@@H]4N2C(=O)[C@@H]1SSS3 [Compound 27, C3-(Indol-3′-yl) epitrithiodiketopiperazine] | 151 ± 31 | 146 ± 6.9 | 145 ± 10 | 27.5 ± 9.2 | 27.5 ± 9.2 | – | 36.6 ± 2.4 | 36.6 ± 2.4 | – | – | – | – | – | – | – | stability upon concentration or in solution [3]: tends to degrade
CN1C(=O)[C@@]23C[C@]4(c5c[nH]c6ccccc56)c5ccccc5N(S(=O)(=O)c5ccccc5)[C@@H]4N2C(=O)[C@@H]1SSSS3 [Compound 28, C3-(Indol-3′-yl) epitetrathiodiketopiperazine] | 309 ± 31 | 277 ± 43 | 344 ± 20 | 137 ± 86 | 137 ± 86 | – | 8.3 ± 3.3 | 8.3 ± 3.3 | – | – | – | – | – | – | – | stability upon concentration or in solution [3]: instability in solution
CN1C(=O)[C@@]23C[C@]4(c5c[nH]c6ccccc56)c5ccccc5N[C@@H]4N2C(=O)[C@@H]1SSS3 [Compound 29, C3-(Indol-3′-yl) epitrithiodiketopiperazine] | 217 ± 35 | 348 ± 110 | 168 ± 34 | 123 ± 29 | 123 ± 29 | – | 24.5 ± 7.4 | 24.5 ± 7.4 | – | – | – | – | – | – | – | stability upon concentration or in solution [3]: tends to degrade
CN1C(=O)[C@@]23C[C@]4(Br)c5ccccc5N(S(=O)(=O)c5ccccc5)[C@@H]4N2C(=O)[C@@H]1SS3 [Compound 30, C3-Bromo epidithiodiketopiperazines] | – | – | – | – | – | intermediately good activity | – | – | 152 ± 42 | 277 ± 44 | 162 ± 35 | 44.9 ± 1.3 | 44.9 ± 1.3 | 5 ± 1.3 | 5 ± 1.3 | –
CN1C(=O)[C@@]23C[C@]4(F)c5ccccc5N(S(=O)(=O)c5ccccc5)[C@@H]4N2C(=O)[C@@H]1SS3 [Compound 31, C3-Fluoro epidithiodiketopiperazines] | – | – | – | – | – | intermediately good activity | – | – | 218 ± 97 | > 1000 | 368 ± 78 | 1530 ± 440 | 1530 ± 440 | 20.7 ± 6.4 | 20.7 ± 6.4 | –
CN1C(=O)[C@@]23C[C@]4(c5cc[nH]c5)c5ccccc5N(S(=O)(=O)c5ccccc5)[C@@H]4N2C(=O)[C@@H]1SS3 [Compound 32, C3-(Pyrrol-3′-yl) epidithiodiketopiperazine] | 61 ± 11 | 31.8 ± 2.5 | 66 ± 23 | – | – | – | – | – | – | – | – | – | – | – | – | IC50 [1, 15]: 26.8 ± 4.8 nM; IC50 [1, 16]: 26.8 ± 4.8 nM; IC50 [1, 17]: 22 to 75 nM; change in activity across cell lines (human cancer cell lines): 4 fold; IC50 [2, 18]: 2.8 to 14.8 nM; IC50 [2, 19]: 14.8 ± 3.1 nM; IC50 [2, 20]: 14.8 ± 3.1 nM
COc1ccc([C@]23C[C@@]45SS[C@@H](C(=O)N4[C@H]2N(S(=O)(=O)c2ccccc2)c2ccccc23)N(C)C5=O)cc1 [Compound 33, C3-(p-Methoxyphenyl)epidithiodiketopiperazine] | 63 ± 16 | 46.7 ± 5.3 | 83 ± 18 | – | – | – | – | – | – | – | – | – | – | – | – | IC50 [1, 15]: 22.2 ± 10.9 nM; IC50 [1, 16]: 22.2 ± 10.9 nM; IC50 [1, 17]: 22 to 75 nM; change in activity across cell lines (human cancer cell lines): 4 fold; IC50 [2, 18]: 2.8 to 14.8 nM; IC50 [2, 19]: 5 ± 2.1 nM; IC50 [2, 20]: 5 ± 2.1 nM
CN1C(=O)[C@]23C[C@]4(F)c5ccccc5N(S(=O)(=O)c5ccccc5)[C@@H]4N2C(=O)[C@H]1SS3 [Compound 35, C3-Fluoro epidithiodiketopiperazines] | – | – | – | – | – | intermediately good activity | – | – | 93 ± 34 | 123 ± 50 | 64 ± 20 | 56 ± 21 | 56 ± 21 | 21.3 ± 8.7 | 21.3 ± 8.7 | –
CC(=O)S[C@H]1C(=O)N2[C@H]3N(S(=O)(=O)c4ccccc4)c4ccccc4[C@@]3(c3c[nH]c4ccccc34)C[C@]2(SC(C)=O)C(=O)N1C [Compound 44, C3-(Indol-3′-yl)bisthloaeetate] | 103 ± 37 | 149 ± 59 | 151 ± 7 | 17.3 ± 4.5 | 17.3 ± 4.5 | competent anticancer agents | 4.1 ± 0.5 | 4.1 ± 0.5 | – | – | – | – | – | – | – | –
CSS[C@H]1C(=O)N2[C@H]3N(S(=O)(=O)c4ccccc4)c4ccccc4[C@@]3(c3cn(SC)c4ccccc34)C[C@]2(SSC)C(=O)N1C [Compound 45, C3-(Indol-3′-yl) N-(thiomethyl)bis(methyldisulfane)] | 373 ± 75 | 252 ± 37 | 376 ± 120 | 13.7 ± 2.3 | 13.7 ± 2.3 | competent anticancer agents | 14.5 ± 9.1 | 14.5 ± 9.1 | – | – | – | – | – | – | – | –
CN1C(=O)C23CC4(c5c[nH]c6ccccc56)c5ccccc5N(S(=O)(=O)c5ccccc5)C4N2C(=O)C1(C)SC(=S)S3 (stereo not shown) [Compound 64, C3-(Indo-3′-v)dithiepanethiones] | – | – | – | – | – | competent anticancer agents | – | – | 210 ± 73 | 222 ± 72 | 266 ± 85 | 25.3 ± 2 | 25.3 ± 2 | 24 ± 12 | 24 ± 12 | –
